Reference: patent publication EP0290003A2, “Imidazoles” (Byk Gulden Lomberg Chemische Fabrik GmbH, priority 1987, dated 1988)
Where two headings read alike, the source gives them in different places.

Tested on: modifizierten Shay-Ratte
Experiment: Antiulcerogenic and secretion-inhibiting effect in the modified Shay rat (pylorus ligation + oral acetylsalicylic acid)
Format: in vivo
Conditions: for Magenschutzwirkung: Minderung des Läsionsindexes (%) / Säuresekretionshemmung: Verringerung der HCl-Sekretion (%): versus control group, 4 h after pylorus ligation; for ED50: iv, 4 h, i.v.
From the text: Prüfung der antiulcerogenen und sekretionshemmenden Wirkung an der modifizierten Shay-Ratte
In der folgenden Tabelle 1 ist der Einfluß der erfindungsgemäßen Verbindungen nach intravenöser (i. v.) Gabe auf die Läsionsbildung sowie die Säureausscheidung bei der modifizierten Shay-Ratte dargestellt.
Die Ulcusprovokation erfolgt an 24 Stunden nüchternen Ratten (weiblich, 180-200 g, 4 Tiere je Käfig auf hohem Gitterrost) durch Pylorusligatur (unter Diethylethernarkose) und orale Applikation von 100 mg/10ml/kg Acetylsalicylsäure. Die zu prüfenden Substanzen werden intravenös (1 ml/kg) unmittelbar nach der Pylorusligatur verabreicht. Der Wundverschluß wird mittels Michelklammern vorgenommen. 4 Stunden danach erfolgt die Tötung der Tiere im Etherrausch durch Atlas-Dislokation und die Resektion des Magens.
Der Magen wird längs der großen Kurvatur eröffnet und auf einer Korkplatte aufgespannt, nachdem zuvor die Menge des sezernierten Magensaftes (Volumen) und später sein HCl-Gehalt (Titration mit Natronlauge) bestimmt wird. Mit einem Stereomikroskop werden bei 10-facher Vergrößerung Anzahl und Größe (=Durch-messer) vorhandener Ulcera ermittelt. Das Produkt aus Schweregrad (gemäß nachfolgender Punkteskala) und Anzahl der Ulcera dient als individueller Läsionsindex.
Als Maß für den antiulcerogenen Effekt dient die Minderung des mittleren Lä-sionsindex jeder behandelten Gruppe gegenüber dem der Kontrollgruppe (=100 %). Die ED50 bezeichnet diejenige Dosis, die den mittleren Lösionsindex bzw. die HCl-Sektetion gegenüber der Kontrolle um 50 % mindert.

[1] = Rattus norvegicus, interpolated dose reducing the lesion index by 50 % versus control group, read-out: Magenschutzwirkung: ca. ED50 (µmol/kg) i.v.
[2] = interpolated dose reducing the HCl secretion of the rat stomach by 50 % versus control group, read-out: Säuresekretionshemmung: ca. ED50 (µmol/kg) i.v.

Row | Compound | Magenschutzwirkung: Minderung des Läsionsindexes (%) (Dosis 0,1 µmol/kg i.v.) | Säuresekretionshemmung: Verringerung der HCl-Sekretion (%) (Dosis 0,1 µmol/kg i.v.) | Magenschutzwirkung: Minderung des Läsionsindexes (%) (Dosis 0,03 µmol/kg i.v.) | Säuresekretionshemmung: Verringerung der HCl-Sekretion (%) (Dosis 0,03 µmol/kg i.v.) | Magenschutzwirkung: Minderung des Läsionsindexes (%) (Dosis 0,3 µmol/kg i.v.) | Säuresekretionshemmung: Verringerung der HCl-Sekretion (%) (Dosis 0,3 µmol/kg i.v.) | Magenschutzwirkung: Minderung des Läsionsindexes (%) (Dosis 1,0 µmol/kg i.v.) | Säuresekretionshemmung: Verringerung der HCl-Sekretion (%) (Dosis 1,0 µmol/kg i.v.) | Magenschutzwirkung: Minderung des Läsionsindexes (%) (Dosis 3,0 µmol/kg i.v.) | Säuresekretionshemmung: Verringerung der HCl-Sekretion (%) (Dosis 3,0 µmol/kg i.v.) | ED50 [1] [µmol/kg] | ED50 [2] [µmol/kg] | Magenschutzwirkung: Minderung des Läsionsindexes (%) (Dosis 10,0 µmol/kg i.v.) | Säuresekretionshemmung: Verringerung der HCl-Sekretion (%) (Dosis 10,0 µmol/kg i.v.)
1 | Cc1nc2c(OC3CCc4ccccc43)cccn2c1CC#N (stereo not drawn) [Beispiel 4, 3-Cyanomethyl-8-(2,3-dihydro-1-indenyloxy)-2-methyl-imidazo[1,2-a]pyridin] | 47 | -10 | 38 | 3 | 64 | 26 | 86 | 27 | 100 | 83 | ~0.1 | ~1.34 |  | 
2 | Cc1nc2c(OC3CCc4ccccc43)cccn2c1C (stereo not drawn) [Beispiel 1, 8-(2,3-Dihydro-1-indenyloxy)-2,3-dimethyl-imidazo[1,2-a]pyridin] | 40 | 19 |  |  | 58 | 21 | 75 | 40 | 100 | 62 | ~0.2 | ~1.93 | 100 | 78
